Measurements from patent publication US9744191B2, “Antimicrobial compositions and methods” (Yale University, priority 2012, dated 2017).
Entries after “also recorded” stand apart in the source; their conditions may differ.

Tests used:
[1] = tested on: Saccharomyces cerevisiae MYH500; assay: Growth assays for antifungal compounds combined with fluoride: S. cerevisiae; assay type: cell-based; conditions: for inhibition of S. cereviciae growth: under the assay conditions, data not shown; for fungal growth inhibition compared with NaF: 30 mM and 80 mM, with amphotericin B; for effect of ion on MIC of amphotericin B: tested at 30 mM and 80 mM with amphotericin B
Method: (§1) Model Organism: Saccharomyces cerevisiae MYH500 [Genotype: his3-del200, leu2-3, ura3-52, lys2-801, trp1-1, gal2]
Methods: • 1. Pick an isolated yeast colony (S. cerevisiae MYH500) from a plate, inoculate into 2 mL YPD medium in a 14 mL snap-cap tube and grow for 12 h at 30° C. on a shaker (200 rpm). The O.D.600 of the culture should be approximately 1.30. • 2. Two growth methods are used. (i) If culturing cells in 14 mL snap-cap tubes, dilute the cells 1:3 (1 vol. of 12 hr cell culture plus 2 vol. medium). Then, inoculate 2 mL YPD medium with 20 μL of 1/3 diluted cells (1% inoculation). […] (ii) For growth curve measurements, culture cells in a honeycomb 2 plate (Oy Growth Curves Ab Ltd) with 400 μL of medium inoculated with 8 μL of 1:6 diluted cells (1% inoculation). […] Supplement a fungicide and/or fluoride in the culture as necessary for each experiment.

[2] = tested on: Saccharomyces cerevisiae MYH500; assay: Growth assays for Novexatin combined with fluoride: S. cerevisiae; assay type: cell-based; conditions: S. cereviciae; for improvement in MIC at about 24 hours: 30 mM NaF, approximately 24 hours (26.25 h)
Method: as §1
Methods: • 1. Pick an isolated yeast colony (S. cerevisiae MYH500) from a plate, inoculate into 2 mL YPD medium in a 14 mL snap-cap tube and grow for 12 h at 30° C. on a shaker (200 rpm). The O.D.600 of the culture should be approximately 1.30. • 2. For growth curve measurements, culture cells in a honeycomb 2 plate with 80 μL of medium (final volume) inoculated with 2 μL of 1:12 diluted cells. Culture for 48 hrs at 30° C., measuring O.D.600 every 15 m without shaking in the Bioscreen C MBR instrument. • 3. Supplement a fungicide and/or fluoride in the culture as necessary for each experiment.

[3] = target: T1, crcB fluoride transporter (Escherichia coli, UniProt P37002); assay: Fluoride riboswitch beta-galactosidase reporter assay in E. coli cells with imipramine; assay type: cell-based
T1 construct: endogenous in cells; host or cells: E. coli cells carrying a fluoride riboswitch beta-galactosidase reporter construct
T1 sequence (P37002 whole entry): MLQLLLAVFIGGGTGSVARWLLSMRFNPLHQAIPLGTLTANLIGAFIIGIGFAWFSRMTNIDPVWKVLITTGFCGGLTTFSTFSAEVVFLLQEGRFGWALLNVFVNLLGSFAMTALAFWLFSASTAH
Description: Fluoride riboswitch fused to a beta-galactosidase reporter gene. Construct is present in E. coli cells and cells are exposed to concentrations of sodium fluoride and imipramine (x-axis) as noted in FIG. 10.

[4] = tested on: Saccharomyces cerevisiae MYH500; assay: Fungicidal fluoride assay (colony counts after culture in fluoride); assay type: cell-based; conditions: 300 mM fluoride in liquid medium, 160 minute incubation
Method: CrcB proteins are most likely fluoride transporters. The fungal expression of crcB and the subsequent ejection of fluorides from cells is a major mechanism for how these organisms overcome fluoride toxicity. To assess whether fluoride simply halts fungal growth (fungistatic) or kills fungal cells (fungicidal), a culture of Saccharomyces cereviciae and added 300 mM fluoride to the medium was prepared. Samples of this mixture were taken at various times, plated, and the number of resulting colonies were recorded (FIG. 1). […] Therefore, compounds that facilitate the uptake and/or retention of fluoride, or otherwise inhibit the fluoride toxicity mitigation responses of fungi, also function as fungicidal compounds when used in combination with fluoride.
as §1
Medium: YPD (liquid and solid)
• 1. Pick an isolated yeast colony (S. cerevisiae MYH500) from a plate, inoculate into 2 mL YPD medium (liquid) in a 14 mL snap-cap tube and grow for 12 h at 30° C. on a shaker (200 rpm). • 2. Dilute 20 μL of the culture into 2 mL medium and mix. Remove a 20 μL aliquot and transfer to 2 mL YPD medium with 300 mM NaF. Grow at 30° C. on a shaker (200 rpm) for 10, 20, 40, 80, 160 and 240 m. • 3. At each time point, transfer 100 μL culture to an agar plate and distribute. • 4. […]

[5] = tested on: Escherichia coli crcB knock-out; conditions: E. coli crcB knock-out compared to wild-type; cited from earlier work
[6] = tested on: Candida albicans (SC5314; ATCC number MYA-2876); assay: Growth assays for amphotericin B combined with fluoride: C. albicans; assay type: cell-based; conditions: for effect on C. albicans growth: liquid medium, 48 hours
Method: Organism: Candida albicans (SC5314; ATCC number MYA-2876)
Methods: • 1. Pick an isolated C. albicans yeast colony from a plate, inoculate into 2 mL YPD medium in a 17 mL screw-cap tube and grow for 12 h at 28° C. on a shaker (200 rpm). The O.D.600 of the culture should be approximately 3.6. • 2. Two growth methods were used. (i) If culturing cells in 17 ml screw-cap tubes, dilute the cells 1:5 (1 volume of 12 hr cell culture plus 4 volumes of medium). Inoculate 2 mL YPD medium with 20 μL of 1-to-5 diluted cells (1% inoculation). Incubate at 28° C. and 200 rpm for 9 hours before measuring O.D. (ii) For growth curve measurements, culture cells in a honeycomb 2 plate with 400 μL of medium inoculated with 8 μL of 1-to-10 diluted cells (1% inoculation). Culture for 48 hrs at 28° C., measuring OD600 every 15 m without shaking in the Bioscreen C MBR instrument. • 3. Supplement a fungicide and/or fluoride in the culture as necessary for each experiment.

[7] = tested on: Neurospora crassa (FGSC #2225); assay: Growth assays for antifungal compounds combined with fluoride: N. crassa; assay type: cell-based
Method: Model Organism: Neurospora crassa (FGSC #2225) [Genotype: N. crassa, A]
Methods: • 1. Recover N. crassa on a slant with minimal medium at 25° C. for 5-6 days to grow spores. • 2. Re-suspend two loops of spores in 2 mL minimal medium. • 3. Inoculate 20 μL into 2 mL minimal medium in an autoclaved 16×150 mm glass tube with cap. • 4. Supplement a fungicide and/or fluoride in the culture as necessary for each experiment. • 5. Grow for 24 h at 25° C. on a shaker (200 rpm).

## CN(C/C=C/C#CC(C)(C)C)Cc1cccc2ccccc12 [terbinafine]
[1]
  inhibition of S. cereviciae growth: did not significantly inhibit S. cereviciae growth

## cyclic hepta-arginine [NOVEXATIN®]
[2]
  improvement in MIC at about 24 hours: A similar result
[2]; listed as Novexatin®
  improvement in MIC at about 24 hours: improvement in MIC
[2]; combined with 30 mM fluoride, 48 h
  improvement in MIC: greater than 3 fold
[2]; over 48 hours, no fluoride
  concentration needed to almost completely prevent fungal growth: 3 mM

## aculeacin A
[1]; 30 mM fluoride
  effect of fluoride on inhibition of S. cereviciae growth by the antifungal: not affected at all; also recorded: lack of an effect

## Cc1cccc(N(C)C(=S)Oc2ccc3ccccc3c2)c1 [tolnaftate]
[1]
  inhibition of S. cereviciae growth: did not significantly inhibit S. cereviciae growth

## [Cl-].[Na+] [NaCl]
[1]
  fungal growth inhibition compared with NaF: consistently less effective than NaF
  effect of ion on MIC of amphotericin B: improve the MIC values of amphotericin B

## CN(C)CCCN1c2ccccc2CCc2ccccc21 [imipramine, Imipramine]
[3]; 330 μM imipramine, E. coli cells with riboswitch-reporter construct, sodium fluoride
  reporter gene expression (fluorescence, substrate 4-MUG): increased expression of the reporter gene
[3]; E. coli cells lacking the gene for fluoride transporter protein CrcB
  reporter gene expression with imipramine in cells lacking CrcB: substantially reduced

## [Cl-].[K+] [KCl]
[1]
  fungal growth inhibition compared with NaF: consistently less effective than NaF
  effect of ion on MIC of amphotericin B: improve the MIC values of amphotericin B

## [F-].[Na+] [fluoride, Sodium fluoride]
[4]
  loss of cell viability (colonies after plating): near complete killing
[1]; 60 mM fluoride combined with 20 nM amphotericin B
  effect on fungal growth: complete inhibition of growth
[1]; 60 mM fluoride tested alone
  effect on fungal growth: only a modest effect on fungal growth
[1]; 80 mM fluoride alone
  lengthening of time to near full culture growth: two fold
[1]; fluoride alone, 30 mM in liquid medium
  effect on S. cereviciae growth: only marginally affects
[1]; fluoride alone, 48-hour culture
  fluoride concentration required to completely inhibit fungal growth: > 100 mM
[5]
  increase in sensitivity to fluoride of crcB knock-out strain: approximately 200 fold
[6]; 100 mM fluoride alone
  effect on C. albicans growth: only a modest inhibitory effect
[6]; 300 mM fluoride alone
  effect on C. albicans growth: completely prevented growth
[7]; fluoride tested independently, 24 h
  fluoride concentration required to completely prevent N. crassa growth: greater than 80 mM

## C[C@@H]1[C@H](O)[C@@H](C)/C=C/C=C/C=C/C=C/C=C/C=C/C=C/[C@H](O[C@@H]2O[C@H](C)[C@@H](O)[C@H](N)[C@@H]2O)C[C@@H]2O[C@](O)(C[C@@H](O)C[C@@H](O)[C@H](O)CC[C@@H](O)C[C@@H](O)CC(=O)O[C@H]1C)C[C@H](O)[C@H]2C(=O)O [amphotericin B]
[1]; 10 nM amphotericin B in combination with a range of fluoride concentrations
  effect of combination on growth inhibition: dramatic increase in the growth-inhibition effects of fluoride
[1]; 10 nM amphotericin B used alone
  effect on cell growth: almost no effect on cell growth
[1]; 20 nM amphotericin B alone
  growth inhibition effect on S. cereviciae: almost no growth inhibition effect
[1]; 30 mM fluoride added to liquid medium
  improvement in MIC for S. cereviciae: approximately 10 fold
[1]; 80 mM fluoride
  improvement in MIC for S. cereviciae: ~30 fold
[1]; absence of fluoride, over 48 hours
  amphotericin B concentration required to almost completely inhibit growth: 300 nM
[1]; amphotericin B 30 to 70 nM, absence of fluoride
  effect on S. cereviciae growth: only marginally delay near full growth
[6]; medium supplemented with 30 mM fluoride
  MIC for C. albicans: ~0.05 µM
[7]; amphotericin B tested independently, 24 h
  amphotericin B concentration required to prevent N. crassa growth: greater than 300 nM
[7]; combined with 10 mM fluoride
  reduction of MIC for N. crassa: at least 4 fold
[7]; combined with 30 mM fluoride
  reduction of MIC for N. crassa: ≥ 10 fold
